The values below come from ChEMBL document CHEMBL1275597, “In vitro activity of the aminoglycoside antibiotic arbekacin against Acinetobacter baumannii-calcoaceticus isolated from war-wounded patients at Walter Reed Army Medical Center” (Antimicrob Agents Chemother, 2010).

The test system of one series is Homo sapiens. As to the kind of experiment: Cmax in war-wounded patient infected with Acinetobacter baumannii-calcoacetius at 5 to 7 mg/kg/day. The following applies: in vivo. The class given is ADME, organism-based.
The nature of series [1]: Antimicrobial activity against Acinetobacter baumannii-calcoaceticus […] in presence of imipenem. The class given is functional, Acinetobacter calcoaceticus/baumannii complex.
A short description of series [2]: (§1) Antimicrobial activity against Acinetobacter baumannii-calcoaceticus obtained from war-wounded patient assessed as susceptible isolates. Format: functional, Acinetobacter calcoaceticus/baumannii complex.
In series [3] the test system is Acinetobacter calcoaceticus/baumannii complex. As to the kind of experiment: Antimicrobial activity against Acinetobacter baumannii-calcoaceticus obtained from war-wounded patient assessed as susceptible isolates by tube dilution assay. Format: functional.
Series [4] is described as follows: Antimicrobial activity against Acinetobacter baumannii-calcoaceticus […] in presence of meropenem. Format: functional, Acinetobacter calcoaceticus/baumannii complex.
Series [5] relates to Acinetobacter calcoaceticus/baumannii complex. The description is as §1. The class given is functional.
Series [6] in a line: Antimicrobial activity against Acinetobacter baumannii-calcoaceticus obtained from war-wounded patient assessed as susceptible isolates in presence of beta-lactamase inhibitor Sulbactam. The class given is functional, Acinetobacter calcoaceticus/baumannii complex.
Series [7] is described as follows: Antimicrobial activity against Acinetobacter baumannii-calcoaceticus obtained from war-wounded patient. Conditions: Acinetobacter calcoaceticus/baumannii complex. The class given is functional.
Series [8] can be described thus: Cmax in war-wounded patient infected with Acinetobacter baumannii-calcoacetius at 2 to 3 mg/kg/day. The class given is ADME, organism-based. Conditions: human, in vivo.
Series [9] is described as follows: Antimicrobial activity against Acinetobacter baumannii-calcoaceticus obtained from war-wounded patient assessed as zone of inhibition at 128 ug/ml by disk diffusion method. Format: functional. The following applies: Acinetobacter calcoaceticus/baumannii complex; read-out: IZ.

In brackets after ≈: the same amount, converted by molar mass. Activity calls are given as the source filed them.

For the compound GENTAMICIN [listing 1 of 2 here], the Cmax with Homo sapiens is under 4000 ng/mL.

Turning to `C[C@@H](O)[C@H]1C(=O)N2C(C(=O)O)=C(SCCNC=N)C[C@H]12` [IMIPENEM ANHYDROUS], the “fractional inhibitory concentration index (FICI)” value in series [1] is 0.375. For the same compound, the Activity in [2] is 55%.

Consider POLYMYXIN B, for which the Activity in [3] is 100%.

On to `CO/N=C(\C(=O)N[C@@H]1C(=O)N2C(C(=O)[O-])=C(C[N+]3(C)CCCC3)CS[C@H]12)c1csc(N)n1` [CEFEPIME], for which the Activity in series [2] is listed as 32.7%.

On to `NCC[C@H](O)C(=O)N[C@@H]1C[C@H](N)[C@@H](O[C@H]2O[C@H](CN)[C@@H](O)[C@H](O)[C@H]2O)[C@H](O)[C@H]1O[C@H]1O[C@H](CO)[C@@H](O)[C@H](N)[C@H]1O` [AMIKACIN], for which, in series [2], the Activity is 59%.

As to `C[C@@H](O)[C@H]1C(=O)N2C(C(=O)O)=C(S[C@@H]3CN[C@H](C(=O)N(C)C)C3)[C@H](C)[C@H]12` [MEROPENEM], the Activity in series [2] is recorded as 53.7%. In [4], the “fractional inhibitory concentration index (FICI)” value is recorded as 0.5.

With GENTAMICIN [listing 2 of 2 here], in [5], the Activity is 14.5%.

For `O=C(O)c1cn(C2CC2)c2cc(N3CCNCC3)c(F)cc2c1=O` [CIPROFLOXACIN], the Activity in series [2] was 14.5%.

Take COLISTIN: the Activity in series [3] is 100%.

As to `NC[C@H]1O[C@H](O[C@H]2[C@H](O)[C@@H](O[C@H]3O[C@H](CO)[C@@H](O)[C@H](N)[C@H]3O)[C@H](N)C[C@@H]2N)[C@H](N)C[C@@H]1O` [TOBRAMYCIN], in [2], the Activity is reported as 56%.

As to `CC1(C)S[C@@H]2[C@H](NC(=O)[C@H](N)c3ccccc3)C(=O)N2[C@H]1C(=O)O` [AMPICILLIN], the Activity in [6] is reported as 67.3%.

`CCN1CCN(C(=O)N[C@@H](C(=O)N[C@@H]2C(=O)N3[C@@H]2SC(C)(C)[C@@H]3C(=O)O)c2ccccc2)C(=O)C1=O` [PIPERACILLIN]: the Activity in series [2] is 9.8%.

Consider `COc1c(N2CCNC(C)C2)c(F)cc2c(=O)c(C(=O)O)cn(C3CC3)c12` (stereo not drawn) [GATIFLOXACIN], for which the Activity in series [2] is on record as 27%.

Regarding `CC(C)(O/N=C(\C(=O)N[C@@H]1C(=O)N2C(C(=O)[O-])=C(C[n+]3ccccc3)CS[C@H]12)c1csc(N)n1)C(=O)O` [CEFTAZIDIME], in series [2], the Activity is 25%.

Regarding `C[C@H]1COc2c(N3CCN(C)CC3)c(F)cc3c(=O)c(C(=O)O)cn1c23.C[C@H]1COc2c(N3CCN(C)CC3)c(F)cc3c(=O)c(C(=O)O)cn1c23.O` [LEVOFLOXACIN], the Activity in series [2] is recorded as 20.5%.

For `COc1c(N2C[C@@H]3CCCN[C@@H]3C2)c(F)cc2c(=O)c(C(=O)O)cn(C3CC3)c12`, the outcome in series [5] was inactive.

As to `NCC[C@H](O)C(=O)N[C@@H]1C[C@H](N)[C@@H](O[C@H]2O[C@H](CN)CC[C@H]2N)[C@H](O)[C@H]1O[C@H]1O[C@H](CO)[C@@H](O)[C@H](N)[C@H]1O` [ARBEKACIN], in series [7], the minimum inhibitory concentration (MIC) was 2 µg/mL (≈ 3.62 µM). Besides, the Cmax in [8] was 20000 ng/mL. Further, the Activity in series [2] was 86.5%. Further, the zone of inhibition at 128 µg/mL in series [9] was 13 mm.

With `CN(C)c1ccc(O)c2c1C[C@H]1C[C@H]3[C@H](N(C)C)C(O)=C(C(N)=O)C(=O)[C@@]3(O)C(O)=C1C2=O` [MINOCYCLINE], the Activity in [2] was 92.6%.

As usually defined, the Cmax is the highest concentration seen after dosing. Usually MIC stands for the smallest concentration in the dilution series that meets the test's criterion for growth inhibition.
